Each molecule was assayed on NCI-H358(KRAS^G12C mutation) cells (assay: Cell assay of antiproliferative activity (Celltiter-Glo, 5 days) against NCI-H358 cells). Conditions: 5 days incubation.
Format: cell-based
Description: Cell assay of antiproliferative activity of compounds against NCI-H358(KRAS^G12C mutation) and A549(KRAS^G12S mutation) cells.
40 μl phosphate buffer was added to the outer wells of the 384 microplate, and 40 μl cell suspension to be tested was added to the other wells. Then the microplate was incubated in a carbon dioxide incubator overnight.
The compounds to be tested were gradiently diluted, each compound was performed 10 concentration gradients (diluted from 50 μM to 0.003 μM) and added 100 nL to the corresponding wells in the microplate. After addition, 40 μl of phosphate buffer was added to each well in rows A and P and columns 1 and 24, and then the microplate was incubated in a carbon dioxide incubator for 5 days.
20 μL of Promega Celltiter-Glo reagent was added to each well of the microplate, and then the luminescence signal was stabilized by oscillating at room temperature for 10 min. Then PekinElmer Envision multi-label analyzer was used to read.
Finally, GraphPad Prism software was used to calculate the IC50 value of the compound and the fitting curve was drawn.
Anti-proliferative activity of the compounds of the present invention against NCI-H358(KRAS^G12C mutation) and A549(KRAS^G12S mutation) cells were shown in Table 1.

Compound	IC50
C=CC(=O)N1CCN(c2nc(OCC3(CN(C)C)CC3)nc3c2CC(C)N(c2cccc4cccc(Cl)c24)C3)CC1CC#N (single isomer, unassigned) [Example 29B, 2-(1-acroloyl-4-(7-(8-chloronaphthalen-1-yl)-2-((1-((dimethylamino)methyl)cyclopropyl)methoxyl)-6-methyl-5,6,7,8-tetrahydropyrido [3,4-d]pyrimidin-4-yl)piperazin-2-yl) acetonitrile]	53 nM
C=C(F)C(=O)N1CCN(c2nc(OCC3(CN(C)C)CC3)nc3c2C[C@@H](C)N(c2cccc4ccc(F)c(Cl)c24)C3)C[C@@H]1CC#N [Example 96B, 2-((S)-4-((R)-7-(8-chloro-7-fluoronaphthalen-1-yl)-2-((1-((dimethylamino)methyl)cyclopropyl)methoxy)-6-methyl-5,6,7,8-tetrahydropyrido[3,4-d]pyrimidin-4-yl)-1-(2-fluoroacroloyl)piperazin-2-yl) acetonitrile]	5 nM
C=CC(=O)N1CCN(c2nc(OCC3(CN(C)C)CC3)nc3c2CC(C)N(c2cccc4cccc(Cl)c24)C3)CC1CC#N (single isomer, unassigned) [Example 29D, 2-(1-acroloyl-4-(7-(8-chloronaphthalen-1-yl)-2-((1-((dimethylamino)methyl)cyclopropyl)methoxyl)-6-methyl-5,6,7,8-tetrahydropyrido [3,4-d]pyrimidin-4-yl)piperazin-2-yl) acetonitrile]	6 nM
C=CC(=O)N1CCN(c2nc(OC[C@H](C)N(C)C3CCC3)nc3c2CCN(c2cccc4cccc(C)c24)C3)C[C@H]1CC#N [Example 91B, 2-((R)-1-acroloyl-4-(2-((S)-2-(cyclobutyl(methyl)amino)propoxy)-7-(8-methylnaphthalen-1-yl)-5,6,7,8-tetrahydropyrido[3,4-d]pyrimidin-4-yl)piperazin-2-yl) acetonitrile]	< 1000 nM
C=CC(=O)N1CCN(c2nc(OCCN(C)CC3(F)CC3)nc3c2CCN(c2cccc4cccc(C)c24)C3)CC1CC#N (stereo not drawn) [Example 80, 2-(1-acroloyl-4-(2-(2-(((1-fluorocyclopropyl)methyl) (methyl)amino)ethoxy)-7-(8-methylnaphthalen-1-yl)-5,6,7,8-tetrahydropyrido[3,4-d]pyrimidin-4-yl)piperazin-2-yl) acetonitrile]	< 100 nM
C=C(F)C(=O)N1CCN(c2nc(OCC3(CN(C)C)CC3)nc3c2C[C@H](C)N(c2cccc4ccc(F)c(Cl)c24)C3)C[C@@H]1CC#N [Example 96A, 2-((S)-4-((S)-7-(8-chloro-7-fluoronaphthalen-1-yl)-2-((1-((dimethylamino)methyl)cyclopropyl)methoxy)-6-methyl-5,6,7,8-tetrahydropyrido[3,4-d]pyrimidin-4-yl)-1-(2-fluoroacroloyl)piperazin-2-yl) acetonitrile]	191 nM

Same assay, conditions: Homo sapiens, NCI-H358, 120 h, 5 days incubation

Compound	IC50
C=C(F)C(=O)N1CCN(c2nc(OCC3(CN(CC)CC)CC3)nc3c2CCN(c2cccc4ccc(F)c(Cl)c24)C3)C[C@@H]1CC#N [Example 60, (S)-2-(4-(7-(8-chloro-7-fluoronaphthalen-1-yl)-2-((1-((diethylamino)methyl)cyclopropyl)methoxy)-5,6,7,8-tetrahydropyrido[3,4-d]pyrimidin-4-yl)-1-(2-fluoroacroloyl)piperazin-2-yl) acetonitrile]	92 nM
C=CC(=O)N1CC2(C1)CN(c1nc(OCC3(CN(C)C)CC3)nc3c1CCN(c1cccc4cccc(Cl)c14)C3)C2 [Example 40, 1-(6-(7-(8-chloronaphthalen-1-yl)-2-((1-((dimethylamino)methyl)cyclopropyl)methoxyl)-5,6,7,8-tetrahydropyrido[3,4-d]pyrimidin-4-yl)-2,6-diazaspiro[3.3]heptane-2-yl)prop-2-ene-1-one]	300 nM
C=CC(=O)N1CC2CN(c3nc(OCC4(CN(C)C)CC4)nc4c3CCN(c3cccc5cccc(Cl)c35)C4)CC2C1 (stereo not drawn) [Example 38, 1-(5-(7-(8-chloronaphthalen-1-yl)-2-((1-((dimethylamino)methyl)cyclopropyl)methoxyl)-5,6,7,8-tetrahydropyrido[3,4-d]pyrimidin-4-yl)hexahydropyrrolo[3,4-c]pyrrole-2(1H)-yl)prop-2-ene-1-one]	4900 nM
C=CC(=O)N1CCN(c2nc(OCC3(CN(C)C4CC4)COC3)nc3c2CCN(c2cccc4cccc(Cl)c24)C3)CC1CC#N (stereo not drawn) [Example 32, 2-(1-acroloyl-4-(7-(8-chloronaphthalen-1-yl)-2-((3-((cyclopropyl(methyl)amino)methyl)oxetan-3-yl)methoxyl)-5,6,7,8-tetrahydropyrido[3,4-d]pyrimidin-4-yl)piperazin-2-yl) acetonitrile]	120 nM
C=CC(=O)N1CCN(c2nc(OCCN(C)C3CC(F)(F)C3)nc3c2CCN(c2cccc4cccc(C)c24)C3)CC1CC#N (stereo not drawn) [Example 85]	< 100 nM
C=CC(=O)N1CCN(c2nc(OCC3(CN(C)C)CC3)nc3c2CCN(c2cccc4cccc(Cl)c24)C3)[C@@H](C)C1 [Example 50, (S)-1-(-4-(7-(8-chloronaphthalen-1-yl)-2-((1-((dimethylamino)methyl)cyclopropyl)methoxyl)-5,6,7,8-tetrahydropyrido[3,4-d]pyrimidin-4-yl)-3-methylpiperazin-1-yl)prop-2-ene-1-one]	300 nM
C=C(F)C(=O)N1CCN(c2nc(OCC3(CS(C)(=O)=O)CC3)nc3c2CCN(c2cccc4cccc(Cl)c24)C3)C[C@@H]1CC#N [Example 57, (S)-2-(4-(7-(8-chloronaphthalen-1-yl)-2-((1-((methylsulfonyl)methyl)cyclopropyl)methoxy)-5,6,7,8-tetrahydropyrido[3,4-d]pyrimidin-4-yl)-1-(2-fluoroacroloyl)piperazin-2-yl) acetonitrile]	1300 nM
C=CC(=O)N1C[C@@H](C)N(c2nc(OCC3(CN(C)C)CC3)nc3c2CCN(c2cccc4cccc(Cl)c24)C3)C[C@@H]1C [Example 34, 1-((2S,5R)-4-(7-(8-chloronaphthalen-1-yl)-2-((1-((dimethylamino)methyl)cyclopropyl)methoxyl)-5,6,7,8-tetrahydropyrido[3,4-d]pyrimidin-4-yl)-2,5-dimethylpiperazin-1-yl)prop-2-ene-1-one]	1900 nM
C=C(F)C(=O)N1CCN(c2nc(OCC3(CN4CC(F)(F)C4)CC3)nc3c2CCN(c2cccc4ccc(F)c(Cl)c24)C3)C[C@@H]1CC#N [Example 59]	810 nM
C=C(F)C(=O)N1CCN(c2nc(OCC3(CCN(C)C)CC3)nc3c2CCN(c2cccc4cccc(Cl)c24)C3)C[C@@H]1CC#N [Example 52, (S)-2-(4-(7-(8-chloronaphthalen-1-yl)-2-((1-(2-(dimethylamino)ethyl)cyclopropyl)methoxy)-5,6,7,8-tetrahydropyrido[3,4-d]pyrimidin-4-yl)-1-(2-fluoroacroloyl)piperazin-2-yl) acetonitrile]	540 nM

Continued, values first:

IC50	Compound
45 nM	C=C(F)C(=O)N1CCN(c2nc(OCC3(CN4CC(F)C4)CC3)nc3c2CCN(c2cccc4ccc(F)c(Cl)c24)C3)C[C@@H]1CC#N [Example 65, (S)-2-(4-(7-(8-chloro-7-fluoronaphthalen-1-yl)-2-((1-((3-fluoroazetidin-1-yl)methyl)cyclopropyl)methoxy)-5,6,7,8-tetrahydropyrido[3,4-d]pyrimidin-4-yl)-1-(2-fluoroacroloyl)piperazin-2-yl) acetonitrile]
59 nM	C=C(F)C(=O)N1CCN(c2nc(OCC3(CN(C)C)COC3)nc3c2CCN(c2cccc4cccc(Cl)c24)C3)CC1CC#N (stereo not drawn) [Example 25, 2-(4-(7-(8-chloronaphthalen-1-yl)-2-((3-((dimethylamino)methyl)oxetan-3-yl)methoxy)-5,6,7,8-tetrahydropyrido[3,4-d]pyrimidin-4-yl)-1-(2-fluoroacroloyl)piperazin-2-yl) acetonitrile]
7 nM	[2H]C([2H])([2H])N(CC1(COc2nc3c(c(N4CCN(C(=O)C(=C)F)[C@@H](CC#N)C4)n2)CCN(c2cccc4ccc(F)c(Cl)c24)C3)CC1)C([2H])([2H])[2H] [Example 63]
8 nM	C=C(F)C(=O)N1CCN(c2nc(OCC3(CN(C)C)CC3)nc3c2CCN(c2cccc4ccc(F)c(Cl)c24)C3)C[C@@H]1CC#N [Example 28]
36 nM	C=C(F)C(=O)N1CCN(c2nc(OCC3(CN(C)CC)CC3)nc3c2CCN(c2cccc4ccc(F)c(Cl)c24)C3)C[C@@H]1CC#N [Example 62, (S)-2-(4-(7-(8-chloro-7-fluoronaphthalen-1-yl)-2-((1-((ethyl(methyl)amino)methyl)cyclopropyl)methoxy)-5,6,7,8-tetrahydropyrido[3,4-d]pyrimidin-4-yl)-1-(2-fluoroacroloyl)piperazin-2-yl) acetonitrile]
66 nM	C=C(F)C(=O)N1CCN(c2nc(OCCN(C)C3(C)CCC3)nc3c2CCN(c2cccc4ccc(F)c(Cl)c24)C3)CC1CC#N (stereo not drawn) [Example 33, 2-(4-(7-(8-chloro-7-fluoronaphthalen-1-yl)-2-(2-(methyl(1-methylcyclobutyl)amino)ethoxy)-5,6,7,8-tetrahydropyrido[3,4-d]pyrimidin-4-yl)-1-(2-fluoroacroloyl)piperazin-2-yl) acetonitrile]
43 nM	CC#CC(=O)N1CCN(c2nc(OCC3(CN(C)C)CC3)nc3c2CCN(c2cccc4cccc(Cl)c24)C3)C[C@@H]1CC#N [Example 49, (S)-2-(1-(but-2-ynoyl)-4-(7-(8-chloronaphthalen-1-yl)-2-((1-((dimethylamino)methyl)cyclopropyl)methoxyl)-5,6,7,8-tetrahydropyrido[3,4-d]pyrimidin-4-yl)piperazin-2-yl) acetonitrile]
41 nM	C=CC(=O)N1CCN(c2nc(OCC3(N(C)C)CC3)nc3c2CCN(c2cccc4cccc(Cl)c24)C3)CC1CC#N (stereo not drawn) [Example 30]

— US11459327B1, “Cycloalkyl and hetero-cycloalkyl inhibitors, preparation methods therefor, and use thereof” (Suzhou Zelgen Biopharmaceuticals Co., Ltd., priority 2019, dated 2022)
